According to patent publication US20050137175A1, “Use of ecdysteroids for preparing dermatological or cosmetological anti-hair loss compositions” (L'OREAL, priority 2003, published 2005):

What was measured:
C3H murine model = details: cited from earlier work
hair follicle = assay: Maintenance of hair follicle integrity in vitro (antibody labelling of compartment markers Ki67, keratin K14, transglutaminase, keratin hHa5); format: cell-based, human; details: 14 days of culture, ecdysterone 0.01 μg/ml, compared with reference follicle at D=0
Description: In order to characterize more fully the effect of this substance on the hair follicle, we monitored the mitotic activity of the bulb cells and also the various specific differentiation programmes of the outer sheath, of the inner sheath and of the pilar shaft, in the presence or absence of this substance.
The integrity of the follicle compartments after 14 days of culture was thus monitored by means of antibodies that recognize markers specific for each of these compartments: the mitosis marker Ki67, specific for the matrix (S. Commo & B. A. Bernard, 1997, Br. J. Dermatol. 137: 31-38); keratin K14, specific for the outer sheath (ibid.); transglutaminase, specific for the inner sheath (ibid.); and keratin hHa5, specific for the pillar shaft, and in particular the keratogenic zone and the cuticle (L. Langbein et al., 1999, J. Biol. Chem. 274: 19874-19884).

human hair follicle = assay: Human hair follicle survival in vitro model; format: cell-based
Protocol: We had developed and patented a model for a surviving human follicle in vitro (FR 95-08465) making it possible to evaluate the effect of a substance on follicle survival and extension. We used this in vitro model for evaluating the effect of ecdysterone on hair follicle growth and survival. Various concentrations of this substance were tested: 0.01 μg/ml, 0.1 μg/ml, 1 μg/ml and 10 μg/ml.

Structure (SMILES): CC(C)(O)CC[C@@H](O)[C@](C)(O)[C@H]1CC[C@@]2(O)C3=CC(=O)[C@@H]4C[C@@H](O)[C@@H](O)C[C@]4(C)[C@H]3CC[C@]12C [ecdysterone]
- hair regrowth (C3H murine model): stimulate hair regrowth
- expression of follicle compartment markers (Ki67, keratin K14, transglutaminase, keratin hHa5) (hair follicle): all the markers studied conserve an expression that is comparable to that of the reference follicle at D=0
- human hair follicle survival in vitro (human hair follicle; ecdysterone 0.01 μg/ml): significantly increases human hair follicle survival
- human hair follicle survival in vitro (human hair follicle; ecdysterone 0.1 μg/ml): significantly increases human hair follicle survival
- human hair follicle survival in vitro (human hair follicle; ecdysterone 10 μg/ml): significantly increases human hair follicle survival
